# Assay results reported in ChEMBL document CHEMBL1201862, “PubChem BioAssay data set” (2004).
#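 In this assay, cells in 96-well plates receive the compound at five concentrations for 48 hours. Endpoints are linearly interpolated between the surrounding concentrations. Here, GI50 denotes the concentration required for 50% inhibition of growth.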 Activity calls are given as the source filed them. Rule as the data show it: active = GI50 up to about 1.1 µM and inactive = higher.
# Tests used:
# Assay in all cases: NCI anticancer screen, dose series, 48 h
# 786-0 = test system: 786-0
# A498 = test system: A498
# A549 = test system: A549
# ACHN = test system: ACHN
# CAKI-1 = test system: CAKI-1
# CCRF-CEM = test system: CCRF-CEM
# COLO 205 = test system: COLO 205
# DLD-1 = test system: DLD-1
# DMS-114 = test system: DMS-114
# DMS-273 = test system: DMS-273
# HCC 2998 = test system: HCC 2998
# HCT-116 = test system: HCT-116
# HCT-15 = test system: HCT-15
# HOP-18 = test system: HOP-18
# HOP-62 = test system: HOP-62
# HOP-92 = test system: HOP-92
# HT-29 = test system: HT-29
# IGROV-1 = test system: IGROV-1
# K562 = test system: K562
# KM12 = test system: KM12
# LOX IMVI = test system: LOX IMVI
# LXFL 529 = test system: LXFL 529
# M14 = test system: M14
# M19-MEL = test system: M19-MEL
# MOLT-4 = test system: MOLT-4
# Malme-3M = test system: Malme-3M
# NCI-H226 = test system: NCI-H226
# NCI-H23 = test system: NCI-H23
# NCI-H460 = test system: NCI-H460
# NCI-H522 = test system: NCI-H522
# OVCAR-3 = test system: OVCAR-3
# OVCAR-4 = test system: OVCAR-4
# OVCAR-5 = test system: OVCAR-5
# OVCAR-8 = test system: OVCAR-8
# RPMI-8226 = test system: RPMI-8226
# RXF 393 = test system: RXF 393
# RXF 631 = test system: RXF 631
# SF-268 = test system: SF-268
# SF-295 = test system: SF-295
# SF-539 = test system: SF-539
# SK-MEL-28 = test system: SK-MEL-28
# SK-MEL-2 = test system: SK-MEL-2
# SK-MEL-5 = test system: SK-MEL-5
# SN12C = test system: SN12C
# SNB-19 = test system: SNB-19
# SNB-75 = test system: SNB-75
# SR = test system: SR
# SW-620 = test system: SW-620
# TK-10 = test system: TK-10
# U-251 = test system: U-251
# UACC-257 = test system: UACC-257
# UACC-62 = test system: UACC-62
# UO-31 = test system: UO-31
# XF498 = test system: XF498
# EKVX = test system: EKVX
# HL-60 = test system: HL-60
# KM-20L2 = test system: KM-20L2
# SK-OV-3 = test system: SK-OV-3
# SNB-78 = test system: SNB-78
structure (smiles),measurement,setting,value
COc1cccc(/C=C2\CCC(CCN(C)C)(C3=CCCC3)C2=O)c1 (stereo unspecified),GI50,786-0,14.7 µM (inactive)
same,GI50,A498,15.7 µM (inactive)
same,GI50,A549,16.1 µM (inactive)
same,GI50,ACHN,16.7 µM (inactive)
same,GI50,CAKI-1,12.3 µM (inactive)
same,GI50,CCRF-CEM,19.1 µM (inactive)
same,GI50,COLO 205,8.3 µM (inactive)
same,GI50,DLD-1,17.8 µM (inactive)
same,GI50,DMS-114,14.3 µM (inactive)
same,GI50,DMS-273,14.4 µM (inactive)
same,GI50,HCC 2998,16.7 µM (inactive)
same,GI50,HCT-116,13.8 µM (inactive)
same,GI50,HCT-15,16.2 µM
same,GI50,HOP-18,13.7 µM (inactive)
same,GI50,HOP-62,17.2 µM (inactive)
same,GI50,HOP-92,12.3 µM (inactive)
same,GI50,HT-29,13.8 µM (inactive)
same,GI50,IGROV-1,15.8 µM (inactive)
same,GI50,K562,15.5 µM (inactive)
same,GI50,KM12,17.2 µM (inactive)
same,GI50,LOX IMVI,15.6 µM (inactive)
same,GI50,LXFL 529,15.5 µM (inactive)
same,GI50,M14,14.4 µM (inactive)
same,GI50,M19-MEL,16.4 µM (inactive)
same,GI50,MOLT-4,13.9 µM (inactive)
same,GI50,Malme-3M,15.6 µM (inactive)
same,GI50,NCI-H226,17.1 µM (inactive)
same,GI50,NCI-H23,19.3 µM (inactive)
same,GI50,NCI-H460,15.8 µM (inactive)
same,GI50,NCI-H522,13.4 µM (inactive)
same,GI50,OVCAR-3,17.3 µM (inactive)
same,GI50,OVCAR-4,16.4 µM (inactive)
same,GI50,OVCAR-5,14.6 µM (inactive)
same,GI50,OVCAR-8,17.3 µM (inactive)
same,GI50,RPMI-8226,11.7 µM (inactive)
same,GI50,RXF 393,8.73 µM (inactive)
same,GI50,RXF 631,23.7 µM (inactive)
same,GI50,SF-268,21.3 µM (inactive)
same,GI50,SF-295,17 µM (inactive)
same,GI50,SF-539,16.1 µM (inactive)
same,GI50,SK-MEL-28,15.9 µM (inactive)
same,GI50,SK-MEL-2,15.9 µM (inactive)
same,GI50,SK-MEL-5,17.7 µM (inactive)
same,GI50,SN12C,14.9 µM (inactive)
same,GI50,SNB-19,16.8 µM (inactive)
same,GI50,SNB-75,15.9 µM (inactive)
same,GI50,SR,35.5 µM (inactive)
same,GI50,SW-620,13.9 µM (inactive)
same,GI50,TK-10,15.8 µM (inactive)
same,GI50,U-251,16.6 µM (inactive)
same,GI50,UACC-257,15.5 µM (inactive)
same,GI50,UACC-62,15.4 µM (inactive)
same,GI50,UO-31,13.6 µM (inactive)
same,GI50,XF498,17.7 µM (inactive)
O=C1Cc2ccccc2N1c1c(Cl)cccc1Cl,GI50,786-0,92.5 µM (inactive)
same,GI50,A498,50.8 µM (inactive)
same,GI50,A549,50.2 µM (inactive)
same,GI50,ACHN,70.1 µM (inactive)
same,GI50,CAKI-1,61.1 µM (inactive)
same,GI50,CCRF-CEM,32.9 µM (inactive)
same,GI50,COLO 205,42.3 µM (inactive)
same,GI50,DLD-1,47.9 µM (inactive)
same,GI50,DMS-114,29.1 µM (inactive)
same,GI50,EKVX,63.5 µM (inactive)
same,GI50,HCC 2998,76.7 µM (inactive)
same,GI50,HCT-116,45.6 µM (inactive)
same,GI50,HCT-15,46.9 µM
same,GI50,HL-60,15.3 µM (inactive)
same,GI50,HOP-18,> 100 µM (inactive)
same,GI50,HOP-62,> 100 µM (inactive)
same,GI50,HOP-92,50.2 µM (inactive)
same,GI50,HT-29,34.3 µM (inactive)
same,GI50,IGROV-1,43.4 µM (inactive)
same,GI50,K562,21.3 µM (inactive)
same,GI50,KM-20L2,30.2 µM (inactive)
same,GI50,KM12,31.8 µM (inactive)
same,GI50,LOX IMVI,49.5 µM (inactive)
same,GI50,LXFL 529,87.7 µM (inactive)
same,GI50,M14,71 µM (inactive)
same,GI50,M19-MEL,40.6 µM (inactive)
same,GI50,MOLT-4,22.6 µM (inactive)
same,GI50,Malme-3M,56.8 µM (inactive)
same,GI50,NCI-H226,37.9 µM (inactive)
same,GI50,NCI-H23,52 µM (inactive)
same,GI50,NCI-H460,97.5 µM (inactive)
same,GI50,NCI-H522,24.6 µM (inactive)
same,GI50,OVCAR-3,57.1 µM (inactive)
same,GI50,OVCAR-4,48 µM (inactive)
same,GI50,OVCAR-5,> 100 µM (inactive)
same,GI50,OVCAR-8,93.3 µM (inactive)
same,GI50,RPMI-8226,19.6 µM (inactive)
same,GI50,RXF 631,> 100 µM (inactive)
same,GI50,SF-268,71 µM (inactive)
same,GI50,SF-295,38.4 µM (inactive)
same,GI50,SF-539,81.3 µM (inactive)
same,GI50,SK-MEL-28,54 µM (inactive)
same,GI50,SK-MEL-2,28.5 µM (inactive)
same,GI50,SK-MEL-5,32.8 µM (inactive)
same,GI50,SK-OV-3,0.424 µM (active)
same,GI50,SN12C,89.1 µM (inactive)
same,GI50,SNB-19,79.1 µM (inactive)
same,GI50,SNB-75,27.7 µM (inactive)
same,GI50,SNB-78,74.5 µM (inactive)
same,GI50,SR,25.4 µM (inactive)
same,GI50,SW-620,38.6 µM (inactive)
same,GI50,TK-10,98.4 µM (inactive)
same,GI50,U-251,63.7 µM (inactive)
same,GI50,UACC-257,39.6 µM (inactive)
same,GI50,UACC-62,40.2 µM (inactive)
same,GI50,UO-31,24.3 µM (inactive)
same,GI50,XF498,21.6 µM (inactive)
